Experimental data from PubChem BioAssay AID1963862 (Molecular Pharmacology Branch, DTP, NCI, 2024).

Test system: KRAS patient-derived spheroids with HUVEC/MSC, viability
Test: Anticancer human tumor 941728-121-R-J1-PDC patient-derived lung adenocarcinoma cell line growth inhibition [KRAS2]
Settings: for IC50: curve of first compound; for viability, T/C: stronger effect = lower value
Summary of the method: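 KRAS-mutant tumor cells were grown as spheroids with HUVEC endothelial cells and human MSCs as stroma. Targeted agents were tested alone and with KRAS pathway inhibitors. Doses started at or near clinical Cmax, or 10 microM, descending half-log.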

[1] = second compound 0.0316 µM, first compound 0.0316 µM
[2] = second compound 0.0316 µM, first compound 0.1 µM
[3] = second compound 0.0316 µM, first compound 0.316 µM
[4] = second compound 0.0316 µM, first compound 1 µM
[5] = second compound 0.0316 µM, first compound 3.16 µM
[6] = second compound 0.0316 µM, first compound 10 µM
[7] = second compound 0.1 µM, first compound 0.0316 µM
[8] = second compound 0.1 µM, first compound 0.1 µM
[9] = second compound 0.1 µM, first compound 0.316 µM
[10] = second compound 0.1 µM, first compound 1 µM
[11] = second compound 0.1 µM, first compound 3.16 µM
[12] = second compound 0.1 µM, first compound 10 µM
[13] = second compound 0.316 µM, first compound 0.0316 µM
[14] = second compound 0.316 µM, first compound 0.1 µM
[15] = second compound 0.316 µM, first compound 0.316 µM
[16] = second compound 0.316 µM, first compound 1 µM
[17] = second compound 0.316 µM, first compound 3.16 µM
[18] = second compound 0.316 µM, first compound 10 µM
[19] = second compound 1 µM, first compound 0.0316 µM
[20] = second compound 1 µM, first compound 0.1 µM
[21] = second compound 1 µM, first compound 0.316 µM
[22] = second compound 1 µM, first compound 1 µM
[23] = second compound 1 µM, first compound 3.16 µM
[24] = second compound 1 µM, first compound 10 µM
[25] = second compound 3.16 µM, first compound 0.0316 µM
[26] = second compound 3.16 µM, first compound 0.1 µM
[27] = second compound 3.16 µM, first compound 0.316 µM
[28] = second compound 3.16 µM, first compound 1 µM
[29] = second compound 3.16 µM, first compound 3.16 µM
[30] = second compound 3.16 µM, first compound 10 µM
[31] = second compound 0.0316 µM, first compound 0.01 µM
[32] = second compound 0.1 µM, first compound 0.01 µM
[33] = second compound 0.316 µM, first compound 0.01 µM
[34] = second compound 1 µM, first compound 0.01 µM
[35] = second compound 3.16 µM, first compound 0.01 µM
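Note: spheroids exposed to agents for seven days before readout.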

SMILES | IC50 (second compound 0.0316 µM) [nM] | IC50 (second compound 0.1 µM) [nM] | IC50 (second compound 0.316 µM) [nM] | IC50 (second compound 1 µM) [nM] | IC50 (second compound 3.16 µM) [nM] | viability, T/C [1] [%] | viability, T/C [2] [%] | viability, T/C [3] [%] | viability, T/C [4] [%] | viability, T/C [7] [%] | viability, T/C [8] [%] | viability, T/C [9] [%] | viability, T/C [10] [%] | viability, T/C [13] [%] | viability, T/C [14] [%] | viability, T/C [15] [%] | viability, T/C [16] [%] | viability, T/C [19] [%] | viability, T/C [20] [%] | viability, T/C [21] [%] | further results
CC(C)NCC(C(=O)N1CCN(c2ncnc3c2C(C)CC3O)CC1)c1ccc(Cl)cc1 (stereo not given) + C=CC(=O)N1CCN(c2nc(OCC3CCCN3C)nc3c2CCN(c2cccc4cccc(C)c24)C3)CC1CC#N | < 31.6 | < 31.6 | < 31.6 | < 31.6 | < 31.6 | 29.1 | 29.5 | 23.4 | 23.5 | 27.3 | 30 | 22.8 | 19.5 | 26.8 | 26.6 | 26.5 | 18.9 | 27.4 | 24.1 | 18.9 | viability, T/C [5]: 18%; viability, T/C [6]: 7.87%; viability, T/C [11]: 14.5%; viability, T/C [12]: 7.59%; viability, T/C [17]: 15.7%; viability, T/C [18]: 8.89%; viability, T/C [22]: 15%; viability, T/C [23]: 12.5%; viability, T/C [24]: 4.68%; viability, T/C [25]: 0.13%; viability, T/C [26]: 0.12%; viability, T/C [27]: 0.12%; viability, T/C [28]: 0.15%; viability, T/C [29]: 0.18%; viability, T/C [30]: 0.25%
CC1COCCN1c1cc(-c2ccnn2C)c2ccnc(-c3ccn[nH]3)c2n1 (stereo not given) + C=CC(=O)N1CCN(c2nc(OCC3CCCN3C)nc3c2CCN(c2cccc4cccc(C)c24)C3)CC1CC#N | < 10 | < 10 | < 10 | < 10 | < 10 | 24.8 | 19.9 | 19.6 | 16.9 | 28.3 | 19.9 | 18.5 | 16.6 | 22.7 | 25.9 | 17.6 | 16.1 | 24.2 | 19 | 18.1 | viability, T/C [31]: 26.5%; viability, T/C [5]: 14.6%; viability, T/C [32]: 26.5%; viability, T/C [11]: 13.3%; viability, T/C [33]: 23%; viability, T/C [17]: 12.8%; viability, T/C [34]: 22.9%; viability, T/C [22]: 18.9%; viability, T/C [23]: 15.4%; viability, T/C [35]: 2.14%; viability, T/C [25]: 10.7%; viability, T/C [26]: 2.17%; viability, T/C [27]: 1.73%; viability, T/C [28]: 6.37%; viability, T/C [29]: 6%
CCN1CCN(Cc2ccc(Nc3ncc(F)c(-c4cc(F)c5nc(C)n(C(C)C)c5c4)n3)nc2)CC1 + C=CC(=O)N1CCN(c2nc(OCC3CCCN3C)nc3c2CCN(c2cccc4cccc(C)c24)C3)CC1CC#N | < 3.16 | < 3.16 | < 3.16 | < 3.16 | < 3.16 | 23.5 | 25.4 | 26.3 | 26.9 | 18.9 | 20.8 | 18.1 | 23.5 | 19.1 | 20.2 | 21.1 | 21.6 | 20.1 | 18.4 | 19.4 | viability, T/C (second compound 0.0316 µM, first compound 0.00316 µM): 24.3%; viability, T/C [31]: 25.6%; viability, T/C (second compound 0.1 µM, first compound 0.00316 µM): 20.9%; viability, T/C [32]: 21.3%; viability, T/C (second compound 0.316 µM, first compound 0.00316 µM): 21%; viability, T/C [33]: 21.2%; viability, T/C (second compound 1 µM, first compound 0.00316 µM): 21.3%; viability, T/C [34]: 21.4%; viability, T/C [22]: 20%; viability, T/C (second compound 3.16 µM, first compound 0.00316 µM): 1.17%; viability, T/C [35]: 1.06%; viability, T/C [25]: 0.49%; viability, T/C [26]: 0.73%; viability, T/C [27]: 0.52%; viability, T/C [28]: 0.18%
CCNC(=O)CC1N=C(c2ccc(Cl)cc2)c2cc(OC)ccc2-n2c(C)nnc21 (stereo not given) + C=CC(=O)N1CCN(c2nc(OCC3CCCN3C)nc3c2CCN(c2cccc4cccc(C)c24)C3)CC1CC#N | < 31.6 | < 31.6 | 230 | < 31.6 | < 31.6 | 31.2 | 33.5 | 24.4 | 20.3 | 27.5 | 26.7 | 22.2 | 16.4 | 49.5 | 66.1 | 47 | 39.8 | 27.3 | 28 | 21.1 | viability, T/C [5]: 16.1%; viability, T/C [6]: 14.9%; viability, T/C [11]: 12.3%; viability, T/C [12]: 15.4%; viability, T/C [17]: 33.6%; viability, T/C [18]: 33.7%; viability, T/C [22]: 16.2%; viability, T/C [23]: 12%; viability, T/C [24]: 10.6%; viability, T/C [25]: 1.15%; viability, T/C [26]: 1.91%; viability, T/C [27]: 0.39%; viability, T/C [28]: 1.58%; viability, T/C [29]: 0.42%; viability, T/C [30]: 0.35%
